Patent US20110178104A1, “Anti-Heparin Compounds” (POLYMEDIX INC., priority 2010, published 2011)
In brackets after ≈: the same amount, converted by molar mass. Several values for one entry are separate records, joined by “and”; a condition that tells them apart may be missing. Equal values may be shown once.

Legend:
enoxaparin [1] = assay: FXa amidolytic assay in human plasma, enoxaparin; format: biochemical; details: enoxaparin 10 μg/mL, at a concentration of about 50 μg/mL
[2] = system: unfractionated heparin (UFH); assay: aPTT clotting assay, UFH 0.2 U/mL in plasma (Example 7); format: biochemical; details: UFH 0.2 U/mL in plasma
Protocol: (§1) aPTT clotting Assay. Unfractionated heparin was mixed with plasma at a final concentration of 0.2 U/mL. […] The ACL Elite Hemostasis analyzer (Beckman Coulter™) was used to add aPTT reagent (HemosIL SynthASil) to supplemented plasma. Clotting was initiated by addition of CaCl2 and time to clot was recorded.

fondaparinux (FONDAPX) = assay: FXa chromogenic assay (absence of plasma), fondaparinux; details: fondaparinux 0.02 μg/mL, absence of plasma
Protocol: Human antithrombin was mixed with an anticoagulant agent (a LMWH or fondaparinux); final concentrations were 0.22 μg/mL for the LMWHs and 0.07 μg/mL for fondaparinux. […] Absorbance was read every 30 seconds over a 4 minute period in a SpectraMax 250 instrument (Molecular Devices, Inc.). EC50 values are determined by a curve-fit program (SoftMax Pro) using the following formula:
FXa Chromogenic Assay (absence of plasma). Human antithrombin was mixed with an anticoagulant (a LMWH or fondaparinux); final concentrations were 0.1 μg/mL for the LMWHs and 0.02 μg/mL for fondaparinux. […] Absorbance was read every 30 seconds over a 4 minute period in a SpectraMax 250 instrument (Molecular Devices Inc.™) The slope of absorbance vs time was calculated for each compound concentration. EC50 values were determined using a curve fit program (GraphPad Prism 5).

UFH [3] = assay: FXa amidolytic assay in human plasma, UFH; format: biochemical; details: UFH 4 μg/mL
Protocol: (§2) Eight parts of pooled human plasma was supplemented with 1 part LMWH or UFH at final concentrations of 4 μg/mL, or fondarinux at a final concentration of 1.25 μg/mL. One 1 μL sample of test agent was then added to 9 μL of supplemented plasma (test agent concentration ranges=0.156 to 20 μg/mL) and mixed. The supplemented plasmas were analyzed immediately in clotting and amidolytic assays as described below. All samples were performed in duplicate.
FXa Amidolytic Assay: Bovine factor Xa was added to supplemented plasma and incubated for 5 minutes at 37° C. Spectrozyme FXa substrate was added and the optical density change at 405 nm was measured for 30 seconds. % factor Xa inhibition is calculated using the following equation:
(§3) % Inhibition=[(ODbaseline−ODsample)/ODbaseline]×100.

UFH [4] = assay: FIIa amidolytic assay in human plasma, UFH; format: biochemical; details: UFH 4 μg/mL
Protocol: as §2
FIIa Amidolytic Assay. Human thrombin was added to supplemented plasma and incubated for 1 minute at 37° C. Spectrozyme TH substrate was added and the optical density change at 405 nm was measured for 30 seconds in a SpectraMax 250 instrument. % factor IIa inhibition was calculated using the following equation:
as §3

enoxaparin (ENOX) = assay: FXa chromogenic assay (absence of plasma), enoxaparin; details: enoxaparin 0.1 μg/mL, absence of plasma
Unfractionated heparin = assay: aPTT clotting assay, UFH 0.4 U/mL in plasma (Example 10); format: biochemical; details: unfractionated heparin 0.4 U/mL in plasma; aPTT clotting
Protocol: as §1, with “Assay:” for “Assay.”, “0.4 U/mL (or concentration which increases aPTT time to between 120 and 300 seconds).” for “0.2 U/mL.”

[5] = Cytotoxicity colorimetric assay, NIH/3T3; format: cell-based, mouse; details: mouse, NIH/3T3 cells, one hour in serum-free media
Summary of the method: (§4)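 HepG2 cells (3×10^4/well, MEM + 10% FBS) and NIH/3T3 cells (2×10^4/well, DMEM + 10% BCS) were exposed to compound for 1 h in serum-free medium. Viability read by tetrazolium-to-formazan bioreduction after return to serum medium; EC50 from a four-parameter logistic fit.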

UFH [6] = assay: In vivo neutralization of unfractionated heparin in the rat; details: UFH 100 U/kg IV, 1 mg/kg dose IV
Protocol: The male Sprague-Dawley rats used in this study were obtained from Charles River Laboratories, Raleigh. They were nine-weeks-old at the start of the study and their weights ranged from 279-334 g. Rats were pre-treated with UFH administered by IV injection in a tail vein at 100 U/kg in a dose volume of 1 mL/kg. The rats were then treated with a single IV injection of saline, protamine or the appropriate test compound at doses of 0.25, 0.5 and 1.0 mg/kg. All treatments were dosed in a volume of 1 mL/kg. Blood was collected via the orbital sinus from three rats per group at the following time points after treatment: predose, 1, 3, 10, 30 and 60. At each time point, 1 mL of blood was collected from each animal into a single tube. The blood was analyzed using an AMEX Destiny Plus Coagulation Analyzer for activated partial thromboplastintime (APTT) and anti-Factor Xa.

fondaparinux = assay: FXa amidolytic assay (Example 10), fondaparinux; details: read-out: Fondap FXa EC50; fondaparinux 0.02 μg/mL; human antithrombin, bovine Factor Xa
Protocol: (§5) Two μl of test agent are added (range between 0.01 and 23 ug/ml) and incubated for 5 minutes at 23° C. Bovine Factor Xa was added to a final concentration of 0.636 nkat/mL and incubated for a further 10 minutes at 23° C.

tinzaparin = assay: FXa amidolytic assay (Example 10), tinzaparin; details: read-out: Tinzap FXa EC50; tinzaparin 0.1 ug/ml; human antithrombin, bovine Factor Xa
Protocol: as §5

[7] = system: isolated human erythrocytes; assay: cells; format: cell-based; details: Homo sapiens, Erythrocyte, 1 h, human RBC, 1 hour at 37° C.; read-out: Hemolysis EC50
Summary of the method: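 Pooled human red cells, washed and diluted from a 0.22% stock suspension in TBS pH 7.4, were shaken with two-fold dilutions (1000 to 0.48 µg/ml) for 1 h at 37 °C. Released hemoglobin in the supernatant was read at OD405. EC50 came from a four-parameter logistic fit, with melittin as positive control.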

[8] = Cytotoxicity colorimetric assay, HepG2; format: cell-based, human; details: human, HepG2 cells, one hour in serum-free media
Summary of the method: as §4

enoxaparin [9] = assay: FXa amidolytic assay (Example 10), enoxaparin; details: read-out: Enox FXa EC50; enoxaparin 0.1 ug/ml; human antithrombin, bovine Factor Xa
Protocol: as §5

UFH [10] = assay: FXa amidolytic assay (Example 10), UFH; details: read-out: Heparin FXa uM EC50; UFH 0.03 units/mL; human antithrombin, bovine Factor Xa
Protocol: as §5

[11] = at a concentration of greater than about 25 μg/mL

Structure (SMILES)	percent of the anticoagulant effect of enoxaparin inhibited (FXa amidolytic) (enoxaparin [1])	UFH (aPTT) EC50 [2] [µg/mL]	FONDAPX (FXa) EC50 (fondaparinux (FONDAPX)) [µg/mL]	percent of the anticoagulant effect of UFH inhibited (FXa amidolytic) (UFH [3]; [11])	concentration antagonizing about 50% of the anticoagulant effect of UFH (FXa amidolytic) (UFH [3]; human plasma) [µg/mL]	percent of the anticoagulant effect of UFH inhibited (FIIa amidolytic) (UFH [4]; [11])	concentration antagonizing about 50% of the anticoagulant effect of UFH (FIIa amidolytic) (UFH [4]; human plasma) [µg/mL]	ENOX (FXa) EC50 (enoxaparin (ENOX)) [µg/mL]	EC50 (Unfractionated heparin)	EC50 at 1 h [5] [µg/mL]	neutralization of UFH activity in aPTT assays (UFH [6])	EC50 (fondaparinux)	EC50 (tinzaparin)	EC50 [7] [µg/mL]	EC50 at 1 h [8] [µg/mL]	EC50 (enoxaparin [9])	EC50 (UFH [10]) [µM]
COc1ccc(NC(=O)[C@H](CCCCN)NC(=O)c2cc(NC(=O)[C@H](CCCCN)NC(=O)c3cc(NC(=O)[C@H](CCCCN)NC(=O)c4cc(NC(=O)[C@@H](N)CCCCN)ccc4OC)ccc3OC)ccc2OC)cc1C(N)=O [Compound 8]	about 60%	2.26	6.19	90%-100%	12 to 18	98%-100%	14 to 20	0.29									
COc1cc(OC)c(C(=O)N[C@H]2CC[C@H](NC(=O)c3ccc(OCCCCCN)cc3OCCCCCN)CC2)cc1C(=O)N[C@H]1CC[C@H](NC(=O)c2ccc(OCCCCCN)cc2OCCCCCN)CC1 [Compound 335]									1700 nM and 1410 nM	120 (≈ 116 µM)	complete neutralization	1560 nM and 1390 nM	148 nM and 120 nM	> 1000	700 (≈ 679 µM)	185 nM and 201 nM	0.151
